Among the data in patent US7642270B2, “5-oxo-5,8-dihydro-pyrido-pyrimidine as inhibitors of c-fms kinase” (Janssen Pharmaceutica N.V., priority 2005, dated 2010) are IC50 values, retold here.

This experiment has as its target c-fms (Homo sapiens, UniProt P07333). Description: c-fms autophosphorylation, fluorescence polarization competition immunoassay. The experiment is classed as biochemical. The protocol: Autophosphorylation, Fluorescence Polarization Competition Immunoassay
The assay buffer used was 100 mM 4-(2-hydroxyethyl)piperazine 1-ethanesulfonic acid (HEPES), pH 7.5, 1 mM 1,4-dithio-DL-threitol (DTT), 0.01% (v/v) Tween-20. Compounds were diluted in assay buffer containing 4% dimethylsulfoxide (DMSO) just prior to the assay. […] The kinase reaction was initiated by adding 2 μL of 5 mM ATP (Sigma) in assay buffer. The final concentrations in the assay were 10 nM c-fms, 1 mM ATP, 5 mM MgCl2, 2% DMSO. Control reactions were ran in each plate: in positive and negative control wells, assay buffer (made 4% in DMSO) was substituted for the compound; in addition, positive control wells received 1.2 μL of 50 mM ethylenediaminetetraaceticacid (EDTA).
The plates were incubated at room temperature for 45 min. At the end of the incubation, the reaction was quenched with 1.2 μL of 50 mM EDTA (EDTA was not added to the positive control wells at this point; see above). Following a 5-min incubation, each well received 10 μL of a 1:1:3 mixture of anti-phosphotyrosine antibody, 10×, PTK green tracer, 10× (vortexed), FP dilution buffer, respectively (all from PanVera, cat. # P2837). The plate was covered, incubated for 30 min at room temperature and the fluorescence polarization was read on the Analyst.
The IC50 values shown in Table 1 are averages of three independent measurements.
A general note: In fluorescence polarisation assays a small probe gives low polarisation when free and higher when bound to something large.

Where [1] appears, read: 10 nM c-fms, 1 mM ATP, 5 mM MgCl2, 45 min room temperature, averages of three independent measurements, read-out: c-fms Autophosphorylation IC50.

By IC50 is commonly meant the concentration needed to halve the response being measured.

Read-outs that look alike come from different tables or passages of the source.

Sequence of c-fms (P07333 20-972): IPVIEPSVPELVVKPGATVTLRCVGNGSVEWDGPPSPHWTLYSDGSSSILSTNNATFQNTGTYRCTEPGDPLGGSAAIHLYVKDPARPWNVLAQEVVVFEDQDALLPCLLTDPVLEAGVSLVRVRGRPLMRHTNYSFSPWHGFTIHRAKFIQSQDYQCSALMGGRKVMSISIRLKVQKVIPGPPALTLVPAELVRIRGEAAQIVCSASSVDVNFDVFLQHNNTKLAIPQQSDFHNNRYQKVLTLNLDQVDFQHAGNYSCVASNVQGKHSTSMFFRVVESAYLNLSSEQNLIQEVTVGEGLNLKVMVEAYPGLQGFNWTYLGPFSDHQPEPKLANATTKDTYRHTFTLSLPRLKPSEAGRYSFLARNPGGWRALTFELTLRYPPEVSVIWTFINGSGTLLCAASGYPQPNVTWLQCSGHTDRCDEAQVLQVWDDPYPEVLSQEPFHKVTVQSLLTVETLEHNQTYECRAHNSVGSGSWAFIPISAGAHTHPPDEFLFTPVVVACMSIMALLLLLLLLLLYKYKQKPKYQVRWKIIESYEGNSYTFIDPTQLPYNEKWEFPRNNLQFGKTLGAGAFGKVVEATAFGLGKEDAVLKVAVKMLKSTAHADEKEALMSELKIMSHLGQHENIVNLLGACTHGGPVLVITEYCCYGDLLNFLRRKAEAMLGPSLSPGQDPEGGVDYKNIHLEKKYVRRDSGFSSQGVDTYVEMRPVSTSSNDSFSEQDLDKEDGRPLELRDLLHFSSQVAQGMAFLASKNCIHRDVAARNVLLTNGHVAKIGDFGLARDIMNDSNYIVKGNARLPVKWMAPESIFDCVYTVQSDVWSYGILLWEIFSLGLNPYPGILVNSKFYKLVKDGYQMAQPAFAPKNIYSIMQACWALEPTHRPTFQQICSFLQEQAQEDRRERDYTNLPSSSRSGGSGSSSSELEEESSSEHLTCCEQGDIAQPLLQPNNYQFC

Regarding `CNC(=O)c1cn(-c2ccc3c(c2)CCC3)c2nc(Nc3ccc(CCS(=O)(=O)NC(C)C)cc3)ncc2c1=O` [Cpd 33, 8-Indan-5-yl-2-[4-(2-isopropylsulfamoyl-ethyl)-phenylamino]-5-oxo-5,8-dihydro-pyrido[2,3-d]pyrimidine-6-carboxylic acid methyl amide], the IC50 under setting [1] amounted to 100 nM.

With `CCNC(=O)c1cn(-c2ccc3c(c2)CCC3)c2nc(Nc3ccc(CCS(=O)(=O)NC(C)C)cc3)ncc2c1=O` [Cpd 34, 8-Indan-5-yl-2-[4-(2-isopropylsulfamoyl-ethyl)-phenylamino]-5-oxo-5,8-dihydro-pyrido[2,3-d]pyrimidine-6-carboxylic acid ethyl amide], the IC50 under setting [1] is greater than 1000 nM. Turning to `CNC(=O)c1cn(-c2ccc3c(c2)CCC3)c2nc(Nc3ccc(CCS(=O)(=O)N4CCOCC4)cc3)ncc2c1=O` [Cpd 35, 8-Indan-5-yl-2-{4-[2-(morpholine-4-sulfonyl)-ethyl]-phenylamino}-5-oxo-5,8-dihydro-pyrido[2,3-d]pyrimidine-6-carboxylic acid methyl amide], the IC50 under setting [1] was 80 nM. The same measure, in the same setting: next, `CN1CCN(c2cccc(Nc3ncc4c(=O)c(C(N)=O)cn(-c5ccc6c(c5)CCC6)c4n3)c2)CC1` [Cpd 37, 8-Indan-5-yl-2-[3-(4-methyl-piperazin-1-yl)-phenylamino]-5-oxo-5,8-dihydro-pyrido[2,3-d]pyrimidine-6-carboxylic acid amide]: 8 nM; `CNC(=O)c1cn(-c2ccc3c(c2)CCC3)c2nc(Nc3cccc(N4CCN(C)CC4)c3)ncc2c1=O` [Cpd 38, 8-indan-5-yl-2-[3-(4-methyl-piperazin-1-yl)-phenylamino]-5-oxo-5,8-dihydro-pyrido[2,3-d]pyrimidine-6-carboxylic acid methyl amide]: 9 nM; `CCNC(=O)c1cn(-c2ccc3c(c2)CCC3)c2nc(Nc3cccc(N4CCN(C)CC4)c3)ncc2c1=O` [Cpd 39, 8-Indan-5-yl-2-[3-(4-methyl-piperazin-1-yl)-phenylamino]-5-oxo-5,8-dihydro-pyrido[2,3-d]pyrimidine-6-carboxylic acid ethyl amide]: 13 nM. As to `CNC(=O)c1cn(-c2ccc3c(c2)CCC3)c2nc(Nc3ccc(N4CCNCC4)cc3)ncc2c1=O` [Cpd 41, 8-indan-5-yl-5-oxo-2-(4-piperazin-1-yl-phenylamino)-5,8-dihydro-pyrido[2,3-d]pyrimidine-6-carboxylic acid methyl amide], the IC50 under setting [1] came out at 11 nM.

`CCNC(=O)c1cn(-c2ccc3c(c2)CCC3)c2nc(Nc3ccc(N4CCNCC4)cc3)ncc2c1=O` [Cpd 42, 8-indan-5-yl-5-oxo-2-(4-piperazin-1-yl-phenylamino)-5,8-dihydro-pyrido[2,3-d]pyrimidine-6-carboxylic acid ethyl amide]: the IC50 under setting [1] amounted to 16 nM.

For the compound `CCNC(=O)c1cn(-c2ccc3c(c2)CCC3)c2nc(Nc3ccc(N4CC(C)NC(C)C4)cc3)ncc2c1=O` (centres unmarked) [Cpd 45, 2-[4-(3,5-Dimethyl-piperazin-1-yl)-phenylamino]-8-indan-5-yl-5-oxo-5,8-dihydro-pyrido[2,3-d]pyrimidine-6-carboxylic acid ethyl amide], the IC50 under setting [1] amounted to 12 nM. Same read-out and setting: next, `CCNC(=O)c1cn(-c2ccc3c(c2)CCC3)c2nc(Nc3ccc(CCN4CCN(C)CC4)cc3)ncc2c1=O` [Cpd 48, 8-Indan-5-yl-2-{4-[2-(4-methyl-piperazin-1-yl)-ethyl]-phenylamino}-5-oxo-5,8-dihydro-pyrido[2,3-d]pyrimidine-6-carboxylic acid ethyl amide]: 32 nM; `CCNC(=O)c1cn(-c2ccc3c(c2)CCC3)c2nc(Nc3ccc(C4CCNCC4)cc3)ncc2c1=O` [Cpd 51, 8-Indan-5-yl-5-oxo-2-(4-piperidin-4-yl-phenylamino)-5,8-dihydro-pyrido[2,3-d]pyrimidine-6-carboxylic acid ethyl amide]: 25 nM. Regarding `NC(=O)c1cn(C2CCCCC2)c2nc(Nc3ccc(CCN4CCOCC4)cc3)ncc2c1=O` [Cpd 57, 8-Cyclohexyl-2-[4-(2-morpholin-4-yl-ethyl)-phenylamino]-5-oxo-5,8-dihydro-pyrido[2,3-d]pyrimidine-6-carboxylic acid amide], the IC50 under setting [1] was found to be 26 nM. On to `CNC(=O)c1cn(C2CCCCC2)c2nc(Nc3ccc(CCN4CCOCC4)cc3)ncc2c1=O` [Cpd 58, 8-Cyclohexyl-2-[4-(2-morpholin-4-yl-ethyl)-phenylamino]-5-oxo-5,8-dihydro-pyrido[2,3-d]pyrimidine-6-carboxylic acid methyl amide], for which, under setting [1], the IC50 turned out to be 120 nM. Regarding `CCNC(=O)c1cn(C2CCCCC2)c2nc(Nc3ccc(CCN4CCOCC4)cc3)ncc2c1=O` [Cpd 59, 8-Cyclohexyl-2-[4-(2-morpholin-4-yl-ethyl)-phenylamino]-5-oxo-5,8-dihydro-pyrido[2,3-d]pyrimidine-6-carboxylic acid ethyl amide], the IC50 under setting [1] amounted to 190 nM. For the compound `CN1CCN(c2ccc(Nc3ncc4c(=O)c(C(N)=O)cn(C5CCCCC5)c4n3)cc2)CC1` [Cpd 60, 8-Cyclohexyl-2-[4-(4-methyl-piperazin-1-yl)-phenylamino]-5-oxo-5,8-dihydro-pyrido[2,3-d]pyrimidine-6-carboxylic acid amide], the IC50 under setting [1] amounted to 35 nM.

As for `CNC(=O)c1cn(C2CCCCC2)c2nc(Nc3ccc(N4CCN(C)CC4)cc3)ncc2c1=O` [Cpd 61, 8-Cyclohexyl-2-[4-(4-methyl-piperazin-1-yl)-phenylamino]-5-oxo-5,8-dihydro-pyrido[2,3-d]pyrimidine-6-carboxylic acid methyl amide], the IC50 under setting [1] amounted to 160 nM. Regarding `CCNC(=O)c1cn(C2CCCCC2)c2nc(Nc3ccc(N4CCN(C)CC4)cc3)ncc2c1=O` [Cpd 62, 8-Cyclohexyl-2-[4-(4-methyl-piperazin-1-yl)-phenylamino]-5-oxo-5,8-dihydro-pyrido[2,3-d]pyrimidine-6-carboxylic acid ethyl amide], the IC50 under setting [1] came out at 190 nM.

Regarding `CN1CCN(c2cccc(Nc3ncc4c(=O)c(C(N)=O)cn(C5CCCCC5)c4n3)c2)CC1` [Cpd 63, 8-Cyclohexyl-2-[3-(4-methyl-piperazin-1-yl)-phenylamino]-5-oxo-5,8-dihydro-pyrido[2,3-d]pyrimidine-6-carboxylic acid amide], the IC50 under setting [1] came out at 21 nM. For `CNC(=O)c1cn(C2CCCCC2)c2nc(Nc3cccc(N4CCN(C)CC4)c3)ncc2c1=O` [Cpd 64, 8-Cyclohexyl-2-[3-(4-methyl-piperazin-1-yl)-phenylamino]-5-oxo-5,8-dihydro-pyrido[2,3-d]pyrimidine-6-carboxylic acid methyl amide], under setting [1], the IC50 was determined as 50 nM. Regarding `CCNC(=O)c1cn(C2CCCCC2)c2nc(Nc3cccc(N4CCN(C)CC4)c3)ncc2c1=O` [Cpd 65, 8-Cyclohexyl-2-[3-(4-methyl-piperazin-1-yl)-phenylamino]-5-oxo-5,8-dihydro-pyrido[2,3-d]pyrimidine-6-carboxylic acid ethyl amide], the IC50 under setting [1] worked out at 110 nM. As for `CC(C)NS(=O)(=O)CCc1ccc(Nc2ncc3c(=O)c(C(N)=O)cn(C4CCCCC4)c3n2)cc1` [Cpd 66, 8-Cyclohexyl-2-[4-(2-isopropylsulfamoyl-ethyl)-phenylamino]-5-oxo-5,8-dihydro-pyrido[2,3-d]pyrimidine-6-carboxylic acid amide], the IC50 under setting [1] was determined as 120 nM. For `NC(=O)c1cn(C2CCCCC2)c2nc(Nc3ccc(CCS(=O)(=O)N4CCOCC4)cc3)ncc2c1=O` [Cpd 67, 8-Cyclohexyl-2-{4-[2-(morpholine-4-sulfonyl)-ethyl]-phenylamino}-5-oxo-5,8-dihydro-pyrido[2,3-d]pyrimidine-6-carboxylic acid amide], the IC50 under setting [1] was determined as 120 nM.

For `CN(C)CC(=O)N1CCC(c2ccc(Nc3ncc4c(=O)c(C(N)=O)cn(C5CCCCC5)c4n3)cc2)CC1` [Cpd 68, 8-Cyclohexyl-2-{4-[1-(2-dimethylamino-acetyl)-piperidin-4-yl]-phenylamino}-5-oxo-5,8-dihydro-pyrido[2,3-d]pyrimidine-6-carboxylic acid amide], the IC50 under setting [1] came to 130 nM.

The compound `NC(=O)c1cn(-c2ccc3c(c2)CCC3)c2nc(Nc3ccc(CN4CCOCC4)cc3)ncc2c1=O` [Cpd 69, 8-Indan-5-yl-2-(4-morpholin-4-ylmethyl-phenylamino)-5-oxo-5,8-dihydro-pyrido[2,3-d]pyrimidine-6-carboxylic acid amide] had an IC50 of 18 nM. Take `CN(C)CC(=O)N1CCC(c2ccc(Nc3ncc4c(=O)c(C(N)=O)cn(-c5ccc6c(c5)CCC6)c4n3)cc2)CC1` [Cpd 70, 2-{4-[1-(2-Dimethylamino-acetyl)-piperidin-4-yl]-phenylamino}-8-indan-5-yl-5-oxo-5,8-dihydro-pyrido[2,3-d]pyrimidine-6-carboxylic acid amide]: under setting [1], the IC50 worked out at 1100 nM. With `CN(C)CC(=O)N1CCC(c2cccc(Nc3ncc4c(=O)c(C(N)=O)cn(-c5ccc6c(c5)CCC6)c4n3)c2)CC1` [Cpd 71, 2-{3-[1-(2-Dimethylamino-acetyl)-piperidin-4-yl]-phenylamino}-8-indan-5-yl-5-oxo-5,8-dihydro-pyrido[2,3-d]pyrimidine-6-carboxylic acid amide], the IC50 under setting [1] turned out to be 7400 nM.
